Tested on: ATF4 luciferase reporter in HEK293T cells
Assay: ATF4-Luc assay (ATF4 luciferase reporter, tunicamycin-treated HEK293T cells)
Type: cell-based, human
Settings: Homo sapiens, HEK-293T; HEK293T cells carrying the ATF4 luciferase reporter, 1 μg/mL tunicamycin, 7 hours

| Compound | EC50 [nM] |
| --- | --- |
| O=C(COc1ccc(F)c(Cl)c1)NC12CCC(NC(=O)COc3ccc(F)c(Cl)c3)(CC1)[C@@H](O)C2 [Compound 588, N,N′-[(2S)-2-hydroxybicyclo[2.2.2]octane-1,4-diyl]bis[2-(3-chloro-4-fluorophenoxy)acetamide]] | < 10 |
| O=C(Cc1ccc(Cl)cn1)NC12CCC(NC(=O)COc3ccc(Cl)c(F)c3)(CC1)[C@@H](O)C2 [Compound 606, 2-(4-chloro-3-fluorophenoxy)-N-{(2S)-4-[2-(5-chloropyridin-2-yl)acetamido]-2-hydroxybicyclo[2.2.2]octan-1-yl}acetamide] | 50 to 250 |
| O=C(COCCc1ccc(F)cc1)NC12CC(NC(=O)COc3ccc(Cl)c(F)c3)(C1)C2 [Compound 134, 2-(4-chloro-3-fluorophenoxy)-N-(3-{2-[2-(4-fluorophenyl)ethoxy]acetamido}-bicyclo[1.1.1]pentan-1-yl)acetamide] | 50 to 250 |
| O=C(COc1ccc(Cl)c(F)c1)NC12CC(NC(=O)Nc3ccc(Cl)cc3O)(C1)C2 [Compound 432, 2-(4-chloro-3-fluorophenoxy)-N-(3-{[(4-chloro-2-hydroxyphenyl)carbamoyl]amino}bicyclo[1.1.1]pentan-1-yl)acetamide] | 50 to 250 |
| O=C(COc1ccc(Cl)c(F)c1)NC12CC(NC(=O)COc3cnc(C(F)(F)F)cn3)(C1)C2 [Compound 107, 2-(4-chloro-3-fluorophenoxy)-N-[3-(2-{[5-(trifluoromethyl)pyrazin-2-yl]oxy}acetamido)bicyclo[1.1.1]pentan-1-yl]acetamide] | 50 to 250 |
| O=C(COc1ccc(Cl)c(F)c1)NC12CCC(NC(=O)COc3ccc(F)cc3)(CC1)[C@@H](O)C2 (single isomer, unassigned) [Compound 354] | < 10 |
| Cc1cc(OCC(=O)NC23CC(NC(=O)COc4ccc(Cl)c(F)c4)(C2)C3)n(C)n1 [Compound 385, 2-(4-chloro-3-fluorophenoxy)-N-(3-{2-[(1,3-dimethyl-1H-pyrazol-5-yl)oxy]acetamido}bicyclo[1.1.1]pentan-1-yl)acetamide] | 500 to 2000 |
| Cc1cc(OCC(=O)NC23CCC(NC(=O)COc4ccc(Cl)c(Cl)c4)(CC2)[C@@H](O)C3)no1 [Compound 664, 2-(3,4-dichlorophenoxy)-N-[(2S)-2-hydroxy-4-{2-[(5-methyl-1,2-oxazol-3-yl)oxy]acetamido}bicyclo[2.2.2]octan-1-yl]acetamide] | 10 to 50 |
| CC1(O)CC2(NC(=O)COc3ccc(Cl)c(F)c3)CCC1(NC(=O)COc1ccc(Cl)c(F)c1)CC2 (centres unmarked) [Compound 339, N,N′-(2-hydroxy-2-methylbicyclo[2.2.2]octane-1,4-diyl)bis[2-(4-chloro-3-fluorophenoxy)acetamide]] | < 10 |
| O=C(COc1ccc(Cl)c(Cl)c1)NC12CCC(NC(=O)COc3cc(F)c4cn[nH]c4c3)(C1)C2 [Compound 195, 2-(3,4-dichlorophenoxy)-N-(4-{2-[(4-fluoro-1H-indazol-6-yl)oxy]acetamido}-bicyclo[2.1.1]hexan-1-yl)acetamide] | 10 to 50 |
| O=C(COc1ccc(Cl)c(F)c1)NC12CCC(NC(=O)COc3cccnc3)(CC1)[C@@H](O)C2 [Compound 495, 2-(4-chloro-3-fluorophenoxy)-N-[(3S)-3-hydroxy-4-{2-[(pyridin-3-yl)oxy]acetamido}bicyclo[2.2.2]octan-1-yl]acetamide] | 10 to 50 |
| O=C(COc1ccc(Cl)c(F)c1)NC12CC(NC(=O)COc3cnc4cc[nH]c4c3)(C1)C2 [Compound 254, 2-(4-chloro-3-fluorophenoxy)-N-(3-{2-[(1H-pyrrolo[3,2-b]pyridin-6-yl)oxy]acetamido}bicyclo[1.1.1]pentan-1-yl)acetamide] | 250 to 500 |
| O=C(COc1ccc(Cl)c(F)c1)NC12CCC(NC(=O)COc3ccc(Cl)c(F)c3)(CC1=O)C(=O)C2 [Compound 561, N,N′-(2,5-dioxobicyclo[2.2.2]octane-1,4-diyl)bis[2-(4-chloro-3-fluorophenoxy)acetamide]] | < 10 |
| O=C(COc1ccc(Cl)c(F)c1)N[C@]12CC[C@](NC(=O)COc3ccc(Cl)c(F)c3)(C[C@@H]1O)[C@@H](O)C2 (racemic) [Compound 560, rac-N,N′-[(1S,2S,4S,5S)-2,5-dihydroxybicyclo[2.2.2]octane-1,4-diyl]bis[2-(4-chloro-3-fluorophenoxy)acetamide]] | < 10 |
| O=C(COc1ccc(Cl)c(F)c1)N[C@H]1C(=O)C[C@@]2(NC(=O)COc3ccc(Cl)c(F)c3)CC[C@@H]1C2 [Compound 652, N,N′-[(1R,4R,5R)-3-oxobicyclo[3.2.1]octane-1,4-diyl]bis[2-(4-chloro-3-fluorophenoxy)acetamide]] | 10 to 50 |
| O=C(COc1ccc(Cl)cc1)NC12CC(NC(=O)COc3ccc(F)c(F)c3)(C1)C2 [Compound 837, 2-(4-chlorophenoxy)-N-{3-[2-(3,4-difluorophenoxy)acetamido]bicyclo[1.1.1]pentan-1-yl}acetamide] | < 10 |

| Compound | EC50 [nM] |
| --- | --- |
| COC(=O)C1CC2(NC(=O)COc3ccc(Cl)c(F)c3)CCC1(NC(=O)COc1ccc(Cl)c(F)c1)CC2 (centres unmarked) [Compound 569, methyl 1,4-bis[2-(4-chloro-3-fluorophenoxy)acetamido]bicyclo[2.2.2]octane-2-carboxylate] | < 10 |
| Cc1cc(OCC(=O)NC23CCC(NC(=O)COc4ccc(Cl)c(F)c4)(CC2)C[C@@H]3O)cnc1C [Compound 394, 2-(4-chloro-3-fluorophenoxy)-N-[(3S)-4-{2-[(5,6-dimethylpyridin-3-yl)oxy]acetamido}-3-hydroxybicyclo[2.2.2]octan-1-yl]acetamide] | < 10 |
| O=C(COc1ccc(Cl)c(F)c1)NC12CC(NC(=O)[C@H](O)CCc3ccccc3)(C1)C2 [Compound 462, (2R)-N-{3-[2-(4-chloro-3-fluorophenoxy)acetamido]bicyclo[1.1.1]pentan-1-yl}-2-hydroxy-4-phenylbutanamide] | > 2000 |
| O=C(COc1ccc(F)c(F)c1)NC12CCC(NC(=O)COc3ccc(F)c(C(F)(F)F)c3)(CC1)[C@@H](O)C2 [Compound 829, 2-(3,4-difluorophenoxy)-N-[(3S)-4-{2-[4-fluoro-3-(trifluoromethyl)phenoxy]acetamido}-3-hydroxybicyclo[2.2.2]octan-1-yl]acetamide] | < 10 |
| CO[C@H]1C[C@]2(NC(=O)COc3ccc(Cl)c(F)c3)CC[C@@]1(NC(=O)COc1ccc(Cl)c(F)c1)CC2O (mixture of isomers) [Compound 553, rac-N,N′-[(1R,4R,5S)-2-hydroxy-5-methoxybicyclo[2.2.2]octane-1,4-diyl]bis[2-(4-chloro-3-fluorophenoxy)acetamide]] | < 10 |
| O=C(COc1ccc2c(c1)OC(F)(F)O2)NC12CC(NC(=O)COc3ccc4c(c3)OC(F)(F)O4)(C1)C2 [Compound 274, N,N′-(bicyclo[1.1.1]pentane-1,3-diyl)bis{2-[(2,2-difluoro-2H-1,3-benzodioxol-5-yl)oxy]acetamide}] | < 10 |
| COc1ccc(OCC(=O)NC23CC(NC(=O)COc4ccc(Cl)c(F)c4)(C2)C3)c(C)n1 [Compound 252, 2-(4-chloro-3-fluorophenoxy)-N-(3-{2-[(6-methoxy-2-methylpyridin-3-yl)oxy]acetamido}bicyclo[1.1.1]pentan-1-yl)acetamide] | 50 to 250 |
| O=C(COc1ccc(Cl)cc1)NC12CC(NC(=O)COc3ccc4c(c3)OC(F)(F)O4)(C1)C2 [Compound 580, 2-(4-chlorophenoxy)-N-(3-{2-[(2,2-difluoro-2H-1,3-benzodioxol-5-yl)oxy]acetamido}bicyclo[1.1.1]pentan-1-yl)acetamide] | < 10 |
| O=C(COc1ccc2c(c1)OC(F)(F)O2)NC12CCC(NC(=O)COc3ccc(Cl)cc3)(CC1)[C@@H](O)C2 [Compound 799, 2-(4-chlorophenoxy)-N-[(2S)-4-{2-[(2,2-difluoro-2H-1,3-benzodioxol-5-yl)oxy]acetamido}-2-hydroxybicyclo[2.2.2]octan-1-yl]acetamide] | < 10 |
| O=C(COc1ccc(C2CC2)nc1)NC12CC(NC(=O)COc3ccc4c(c3)OC(F)(F)O4)(C1)C2 [Compound 268, 2-[(6-cyclopropylpyridin-3-yl)oxy]-N-(3-{2-[(2,2-difluoro-2H-1,3-benzodioxol-5-yl)oxy]acetamido}bicyclo[1.1.1]pentan-1-yl)acetamide] | 10 to 50 |
| O=C(COc1ccc(Cl)cc1)NC12CCC(NC(=O)COc3ccc(F)c(C(F)(F)F)c3)(CC1)[C@@H](O)C2 [Compound 830, 2-(4-chlorophenoxy)-N-[(3S)-4-{2-[4-fluoro-3-(trifluoromethyl)phenoxy]acetamido}-3-hydroxybicyclo[2.2.2]octan-1-yl]acetamide] | < 10 |
| CO[C@@H]1C[C@]2(NC(=O)COc3ccc(Cl)c(F)c3)CC[C@@]1(NC(=O)COc1ccc(Cl)c(F)c1)CC2=O (racemic) [Compound 556, rac-N,N′-[(1R,2R,4R)-2-methoxy-5-oxobicyclo[2.2.2]octane-1,4-diyl]bis[2-(4-chloro-3-fluorophenoxy)acetamide]] | 10 to 50 |
| Cc1cc(OCC(=O)NC23CC(NC(=O)COc4ccc(Cl)c(F)c4)(C2)C3)cnc1F [Compound 244, 2-(4-chloro-3-fluorophenoxy)-N-(3-{2-[(6-fluoro-5-methylpyridin-3-yl)oxy]acetamido}bicyclo[1.1.1]pentan-1-yl)acetamide] | < 10 |
| O=C(COc1ccc(C(F)(F)F)cc1)NC12CCC(NC(=O)COc3ccc(C(F)(F)F)cc3)(CC1)[C@@H](O)C2 [Compound 536, N,N′-[(2S)-2-hydroxybicyclo[2.2.2]octane-1,4-diyl]bis{2-[4-(trifluoromethyl)phenoxy]acetamide}] | < 10 |
| O=C(O)CN(CCOc1ccc(Cl)c(F)c1)C12CC(NC(=O)COc3ccc(Cl)c(F)c3)(C1)C2 [Compound 686, ({3-[2-(4-chloro-3-fluorophenoxy)acetamido]bicyclo[1.1.1]pentan-1-yl}[2-(4-chloro-3-fluorophenoxy)ethyl]amino)acetic Acid] | 500 to 2000 |
| O=C(COc1ccc2cn[nH]c2c1)NC12CC(NC(=O)COc3ccc4cn[nH]c4c3)(C1)C2 [Compound 109, N,N′-(bicyclo[1.1.1]pentane-1,3-diyl)bis{2-[(1H-indazol-6-yl)oxy]acetamide}] | 500 to 2000 |

From patent US20240166652A1, “MODULATORS OF THE INTEGRATED STRESS PATHWAY” (Calico Life Sciences LLC, priority 2017, published 2024)
